Test results as given in ChEMBL document CHEMBL5233234, “True or false? Challenges and recent highlights in the development of aspirin prodrugs” (Eur J Med Chem, 2020).
Values belong to the molecule of their own block, whether it stands above or below them.

How the values were obtained:
[1] = Half life in human plasma by LC-MS/MS analysis; type: ADME, cell-free
[2] = Half life of compound in human plasma; type: ADME, cell-free
[3] = Half life in human plasma; type: ADME, cell-free
[4] = Half life in human plasma at 10 uM; type: ADME, cell-free
[5] = Half life of compound in PBS buffer at pH 7.4 at 50 uM by HPLC analysis; type: physicochemical
[6] = Half life in human liver microsomes at 1 uM measured up to 30 mins by LC-MS/MS analysis; type: ADME, Microsome
[7] = Half life in human plasma measured after 2 days
[8] = Half life in human blood; type: ADME, tissue-based
[9] = Half life of compound in PBS buffer at pH 7.4; type: physicochemical

t1/2 [1]: 0.183 min
Compound: CC(=O)Oc1ccccc1C(=O)O[C@H]1CO[C@H]2[C@@H]1OC[C@H]2O[N+](=O)[O-]

half-life [2]: 1 min
Compound: CC(=O)Oc1ccccc1C(=O)O[C@H]1CO[C@H]2[C@@H]1OC[C@H]2OC(=O)c1ccccc1OC(C)=O

half-life [3]: 14 min
Compound: CC(=O)Oc1ccccc1C(=O)OC[S+](C)[O-] (centres undefined)

half-life at 10 µM [4]: < 1 min | half-life at 50 µM [5]: 57 min
Compound: CC(=O)Oc1ccccc1C(=O)OCOC(=O)c1ccc(OCCCO[N+](=O)[O-])c(OC(=O)CCN)c1

half-life at 1 µM [6]: 28 min
Compound: CCOP(=O)(OCC)OCC(COC(=O)c1ccccc1OC(C)=O)OP(=O)(OCC)OCC (centres undefined)

half-life at 48 h [7]: 15 min
Compound: CC(=O)Oc1ccccc1C(=O)Oc1ccccc1C=O

half-life [8]: 1 min
Compound: CC(=O)Oc1ccccc1C(=O)O[C@@H]1CO[C@H]2[C@@H]1OC[C@@H]2OC(=O)c1ccccc1O

half-life [9]: 26.7 min
Compound: COc1ccccc1COC1(C)OC(=O)c2ccccc2O1 (centres undefined)
